{"source": "patent US8192962B2", "about": "“Processes for detecting toxic substances” (Daikin Industries, Ltd., priority 2001, dated 2012)", "test_system": "Genes belonging to other category", "assay": "DNA chip mRNA expression in yeast, genes belonging to other category (Table 9)", "assay_type": "cell-based, Saccharomyces cerevisiae S288C", "outline": "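In this screen, yeast in logarithmic growth are challenged for two hours with a toxic substance at a non-lethal inhibitory concentration. Their mRNA, converted to Cy3- or Cy5-labeled cDNA, hybridizes at 65° C. to a chip spanning every yeast gene, and expression is expressed as a ratio to untreated cells.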"}
{"smiles": "N#Cc1c(Cl)c(Cl)c(Cl)c(C#N)c1Cl", "note": "[(9), 2,4,5,6-tetrachloro-1,3-benzenedicarbonitrile]", "values": [{"measurement": "The level of expressed mRNA in the presence of chemical substance/The level of expressed mRNA in the absence of chemical substance", "setting": "yeast gene YER009W", "result": 0.7}, {"measurement": "The level of expressed mRNA in the presence of chemical substance/The level of expressed mRNA in the absence of chemical substance", "setting": "yeast gene YER012W", "result": 6.7}, {"measurement": "The level of expressed mRNA in the presence of chemical substance/The level of expressed mRNA in the absence of chemical substance", "setting": "yeast gene YER029C", "result": 1.4}, {"measurement": "The level of expressed mRNA in the presence of chemical substance/The level of expressed mRNA in the absence of chemical substance", "setting": "yeast gene YER039C", "result": 1.2}, {"measurement": "The level of expressed mRNA in the presence of chemical substance/The level of expressed mRNA in the absence of chemical substance", "setting": "yeast gene YER094C", "result": 2.3}, {"measurement": "The level of expressed mRNA in the presence of chemical substance/The level of expressed mRNA in the absence of chemical substance", "setting": "yeast gene YER098W", "result": 2.8}, {"measurement": "The level of expressed mRNA in the presence of chemical substance/The level of expressed mRNA in the absence of chemical substance", "setting": "yeast gene YER107C", "result": 0.4}, {"measurement": "The level of expressed mRNA in the presence of chemical substance/The level of expressed mRNA in the absence of chemical substance", "setting": "yeast gene YER130C", "result": 0.5}, {"measurement": "The level of expressed mRNA in the presence of chemical substance/The level of expressed mRNA in the absence of chemical substance", "setting": "yeast gene YER136W", "result": 1.4}, {"measurement": "The level of expressed mRNA in the presence of chemical substance/The level of expressed mRNA in the absence of chemical substance", "setting": "yeast gene YER177W", "result": 1.8}, {"measurement": "The level of expressed mRNA in the presence of chemical substance/The level of expressed mRNA in the absence of chemical substance", "setting": "yeast gene YER184C", "result": 4.6}, {"measurement": "The level of expressed mRNA in the presence of chemical substance/The level of expressed mRNA in the absence of chemical substance", "setting": "yeast gene YFL022C", "result": 0.5}, {"measurement": "The level of expressed mRNA in the presence of chemical substance/The level of expressed mRNA in the absence of chemical substance", "setting": "yeast gene YFL028C", "result": 2.7}, {"measurement": "The level of expressed mRNA in the presence of chemical substance/The level of expressed mRNA in the absence of chemical substance", "setting": "yeast gene YFL038C", "result": 2.1}, {"measurement": "The level of expressed mRNA in the presence of chemical substance/The level of expressed mRNA in the absence of chemical substance", "setting": "yeast gene YFL043C", "result": 2.2}, {"measurement": "The level of expressed mRNA in the presence of chemical substance/The level of expressed mRNA in the absence of chemical substance", "setting": "yeast gene YFR050C", "result": 3.1}, {"measurement": "The level of expressed mRNA in the presence of chemical substance/The level of expressed mRNA in the absence of chemical substance", "setting": "yeast gene YGL011C", "result": 2.0}, {"measurement": "The level of expressed mRNA in the presence of chemical substance/The level of expressed mRNA in the absence of chemical substance", "setting": "yeast gene YGL048C", "result": 2.4}, {"measurement": "The level of expressed mRNA in the presence of chemical substance/The level of expressed mRNA in the absence of chemical substance", "setting": "yeast gene YGL158W", "result": "−0.4"}, {"measurement": "The level of expressed mRNA in the presence of chemical substance/The level of expressed mRNA in the absence of chemical substance", "setting": "yeast gene YGL208W", "result": 1.4}, {"measurement": "The level of expressed mRNA in the presence of chemical substance/The level of expressed mRNA in the absence of chemical substance", "setting": "yeast gene YGL229C", "result": 1.8}, {"measurement": "The level of expressed mRNA in the presence of chemical substance/The level of expressed mRNA in the absence of chemical substance", "setting": "yeast gene YGR120C", "result": 0.3}, {"measurement": "The level of expressed mRNA in the presence of chemical substance/The level of expressed mRNA in the absence of chemical substance", "setting": "yeast gene YGR131W", "result": 1.9}, {"measurement": "The level of expressed mRNA in the presence of chemical substance/The level of expressed mRNA in the absence of chemical substance", "setting": "yeast gene YGR136W", "result": 2.1}, {"measurement": "The level of expressed mRNA in the presence of chemical substance/The level of expressed mRNA in the absence of chemical substance", "setting": "yeast gene YGR189C", "result": 0.3}, {"measurement": "The level of expressed mRNA in the presence of chemical substance/The level of expressed mRNA in the absence of chemical substance", "setting": "yeast gene YGR213C", "result": 7.5}, {"measurement": "The level of expressed mRNA in the presence of chemical substance/The level of expressed mRNA in the absence of chemical substance", "setting": "yeast gene YGR257C", "result": 1.5}, {"measurement": "The level of expressed mRNA in the presence of chemical substance/The level of expressed mRNA in the absence of chemical substance", "setting": "yeast gene YHL024W", "result": 2.1}, {"measurement": "The level of expressed mRNA in the presence of chemical substance/The level of expressed mRNA in the absence of chemical substance", "setting": "yeast gene YHR004C", "result": 1.1}, {"measurement": "The level of expressed mRNA in the presence of chemical substance/The level of expressed mRNA in the absence of chemical substance", "setting": "yeast gene YHR012W", "result": 4.9}, {"measurement": "The level of expressed mRNA in the presence of chemical substance/The level of expressed mRNA in the absence of chemical substance", "setting": "yeast gene YHR071W", "result": 1.0}, {"measurement": "The level of expressed mRNA in the presence of chemical substance/The level of expressed mRNA in the absence of chemical substance", "setting": "yeast gene YHR109W", "result": 2.4}, {"measurement": "The level of expressed mRNA in the presence of chemical substance/The level of expressed mRNA in the absence of chemical substance", "setting": "yeast gene YHR124W", "result": 3.0}, {"measurement": "The level of expressed mRNA in the presence of chemical substance/The level of expressed mRNA in the absence of chemical substance", "setting": "yeast gene YHR139C", "result": 107.2}, {"measurement": "The level of expressed mRNA in the presence of chemical substance/The level of expressed mRNA in the absence of chemical substance", "setting": "yeast gene YHR142W", "result": 0.4}, {"measurement": "The level of expressed mRNA in the presence of chemical substance/The level of expressed mRNA in the absence of chemical substance", "setting": "yeast gene YHR160C", "result": 2.3}, {"measurement": "The level of expressed mRNA in the presence of chemical substance/The level of expressed mRNA in the absence of chemical substance", "setting": "yeast gene YHR163W", "result": 1.4}, {"measurement": "The level of expressed mRNA in the presence of chemical substance/The level of expressed mRNA in the absence of chemical substance", "setting": "yeast gene YHR171W", "result": 2.1}, {"measurement": "The level of expressed mRNA in the presence of chemical substance/The level of expressed mRNA in the absence of chemical substance", "setting": "yeast gene YIL123W", "result": 0.1}, {"measurement": "The level of expressed mRNA in the presence of chemical substance/The level of expressed mRNA in the absence of chemical substance", "setting": "yeast gene YIL140W", "result": 0.7}, {"measurement": "The level of expressed mRNA in the presence of chemical substance/The level of expressed mRNA in the absence of chemical substance", "setting": "yeast gene YIR018W", "result": 4.0}, {"measurement": "The level of expressed mRNA in the presence of chemical substance/The level of expressed mRNA in the absence of chemical substance", "setting": "yeast gene YJL073W", "result": 1.7}, {"measurement": "The level of expressed mRNA in the presence of chemical substance/The level of expressed mRNA in the absence of chemical substance", "setting": "yeast gene YJL089W", "result": 1.6}, {"measurement": "The level of expressed mRNA in the presence of chemical substance/The level of expressed mRNA in the absence of chemical substance", "setting": "yeast gene YJL113W", "result": 1.3}, {"measurement": "The level of expressed mRNA in the presence of chemical substance/The level of expressed mRNA in the absence of chemical substance", "setting": "yeast gene YJL116C", "result": 2.4}, {"measurement": "The level of expressed mRNA in the presence of chemical substance/The level of expressed mRNA in the absence of chemical substance", "setting": "yeast gene YJL146W", "result": 1.0}, {"measurement": "The level of expressed mRNA in the presence of chemical substance/The level of expressed mRNA in the absence of chemical substance", "setting": "yeast gene YJR004C", "result": 0.3}, {"measurement": "The level of expressed mRNA in the presence of chemical substance/The level of expressed mRNA in the absence of chemical substance", "setting": "yeast gene YJR036C", "result": 1.4}, {"measurement": "The level of expressed mRNA in the presence of chemical substance/The level of expressed mRNA in the absence of chemical substance", "setting": "yeast gene YJR058C", "result": 1.9}, {"measurement": "The level of expressed mRNA in the presence of chemical substance/The level of expressed mRNA in the absence of chemical substance", "setting": "yeast gene YJR086W", "result": 1.4}]}
